In article PMC5702381 (Advances in Therapy, 2017):
Where two headings read alike, the source gives them in different places.

Key:
[1] = for AUCinf / C max: geometric mean ± SD; for CL/F: arithmetic mean ± SD; for t max: median (range)
[2] = type: in vivo, human; conditions: for CL/F: arithmetic mean ± SD
Safety assessments = type: in vivo, human
CYP3A4 = conditions: in vitro; ref unpublished data; cited from earlier work
[3] = type: in vivo, human; conditions: for CL/F: arithmetic mean ± SD; remark: listed apart in the source
[4] = healthy volunteers; cited from earlier work
CYP2B6 = conditions: cited from earlier work
CYP2C19 [5] = conditions: in vitro; ref unpublished data; cited from earlier work
[6] = healthy volunteers; cited from earlier work; remark: listed apart in the source
CYP2C9 = conditions: in vitro; ref unpublished data; cited from earlier work
CYP2C19 [7] = conditions: cited from earlier work
[8] = type: in vivo, human; conditions: for CL/F: arithmetic mean ± SD; remark: listed apart in the source
prothrombin time (PT) = assay: Study 15L-CL-018: warfarin pharmacodynamics; type: in vivo, human; conditions: for AUCPT;0–168 h: geometric mean ± SD
[9] = warfarin 25 mg + amenamevir 200 mg once daily, n = 18
[10] = warfarin 25 mg + amenamevir 400 mg once daily, n = 15
[11] = warfarin 25 mg alone, amenamevir 400 mg group, n = 17
[12] = warfarin + amenamevir 200 mg once daily
[13] = warfarin + amenamevir 400 mg once daily
[14] = warfarin alone, amenamevir 200 mg group
[15] = warfarin alone, amenamevir 400 mg group
[16] = with ketoconazole coadministration vs amenamevir alone
[17] = in the presence of rifampicin vs amenamevir alone

CC(=O)C[C@H](c1ccccc1)c1c(O)c2ccccc2oc1=O [(R)-Warfarin, (R)-warfarin]
AUCinf [1, 9]: 67,092 ± 18,315 ng h/mL
AUCinf [1, 10]: 68,723 ± 12,736 ng h/mL
AUCinf [1, 11]: 75,652 ± 18,160 ng h/mL
CL/F [1, 12]: 0.18 ± 0.04 L/h
C max [1, 12]: 1240 ± 134 ng/mL
t max [1, 12]: 4.0 (1.0–12.0) h
CL/F [1, 13]: 0.17 ± 0.03 L/h
C max [1, 13]: 1262 ± 232 ng/mL
t max [1, 13]: 4.0 (2.0–12.0) h
CL/F [1, 14]: 0.17 ± 0.04 L/h
C max [1, 14]: 1197 ± 133 ng/mL
t max [1, 14]: 4.0 (2.0–4.0) h
CL/F [1, 15]: 0.16 ± 0.04 L/h
C max [1, 15]: 1187 ± 149 ng/mL
t max [1, 15]: 4.0 (2.0–12.0) h

Cc1ncc2n1-c1ccc(Cl)cc1C(c1ccccc1F)=NC2 [Midazolam, midazolam]
pharmacokinetic interaction with amenamevir (90% CI of LS GMR vs 0.80–1.25) ([2]; amenamevir 400 mg once daily, based on C max and AUCinf): significant interaction
pharmacokinetic interaction with amenamevir (90% CI of LS GMR vs 0.80–1.25) ([2]; amenamevir 200-mg dose, based on AUCinf): significant interaction
t max ([2]; human, plasma, oral, 200 mg): 1.5 h
t max ([2]; human, plasma, oral, 400 mg): 1.5 h
CL/F ([2]; midazolam + amenamevir 200 mg once daily): 109.0 ± 43.4 L/h
CL/F ([2]; midazolam + amenamevir 400 mg once daily): 143.8 ± 68.0 L/h
t max ([2]; midazolam + amenamevir 400 mg once daily, median (range)): 1.0 (0.5–4.0) h
CL/F ([2]; midazolam alone, amenamevir 200 mg group): 80.1 ± 37.0 L/h
CL/F ([2]; midazolam alone, amenamevir 400 mg group): 78.2 ± 39.2 L/h

Cc1cccc(C)c1N(CC(=O)Nc1ccc(-c2ncon2)cc1)C(=O)C1CCS(=O)(=O)CC1 [Amenamevir, amenamevir]
deaths, serious adverse events (Safety assessments; across all four studies): no deaths or serious adverse events reported
safety and tolerability (Safety assessments; across all four studies, healthy male adults): safe and generally well tolerated
participants reporting TEAEs (Safety assessments; study 15L-CL-010, group that received the 200-mg dose of amenamevir (with single doses of midazolam 7.5 mg)): 9.1%
participants reporting TEAEs (Safety assessments; study 15L-CL-010, group that received the 400-mg dose of amenamevir (with single doses of midazolam 7.5 mg)): 9.1%
TEAEs considered to be related to the study drug (Safety assessments; study 15L-CL-018, 200-mg amenamevir dose): myalgia
TEAEs considered to be related to the study drug (Safety assessments; study 15L-CL-018, 400-mg amenamevir dose): back pain, abdominal pain, and dyspepsia
induction of enzyme activity (CYP3A4): potentially induces
CL/F ([3]; amenamevir 400 mg + ketoconazole 400 mg once daily): 8.0 ± 2.1 L/h
CL/F ([3]; amenamevir 400 mg alone): 20.8 ± 5.9 L/h
pharmacokinetic interaction with ketoconazole (90% CI of LS GMR vs 0.80–1.25) ([3]; based on AUCinf): significant interaction
Cmax ([3]; human, plasma, oral, 400 mg): 1450 ± 329 ng/mL
half-life ([3]; human, plasma, oral, 400 mg): 8.1 ± 1.9 h
t max ([3]; human, plasma, oral, 400 mg): 4 h
decrease of CL/F [3, 16]: 2.6 fold
increase of mean t ½ [3, 16]: 2.2 fold
urinary excretion as unchanged drug [4]: approximately 10%
correlation of metabolism with marker-enzyme activity (CYP2B6): significantly correlated
induction of enzyme activity (CYP2C19 [5]): weak potential for inducing
change of AUCinf when administered with food [6]: almost doubling
induction of enzyme activity (CYP2C9): potentially induces
correlation of metabolism with marker-enzyme activity (CYP2C19 [7]): significantly correlated
CL/F ([8]; amenamevir 400 mg + rifampicin 600 mg once daily): 133.5 ± 40.0 L/h
CL/F ([8]; amenamevir 400 mg alone): 22.1 ± 5.9 L/h
pharmacokinetic interaction with rifampicin (90% CI of LS GMR vs 0.80–1.25) ([8]; based on C max and AUCinf): significant interaction
Cmax ([8]; human, plasma, oral, 400 mg): 1320 ± 282 ng/mL
half-life ([8]; human, plasma, oral, 400 mg): 8 ± 1.2 h
t max ([8]; human, plasma, oral, 400 mg): 3 h
decrease of mean t ½ [8, 17]: 2.7 fold
increase of mean CL/F [8, 17]: sixfold

CC(=O)C[C@@H](c1ccccc1)c1c(O)c2ccccc2oc1=O [(S)-Warfarin, (S)-warfarin]
AUCinf [1, 9]: 46,725 ± 18,437 ng h/mL
AUCinf [1, 10]: 45,032 ± 23,503 ng h/mL
AUCinf [1, 11]: 50,329 ± 24,609 ng h/mL
CL/F [1, 12]: 0.26 ± 0.07 L/h
C max [1, 12]: 1217 ± 134 ng/mL
t max [1, 12]: 4.0 (1.0–4.0) h
CL/F [1, 13]: 0.27 ± 0.08 L/h
C max [1, 13]: 1251 ± 237 ng/mL
t max [1, 13]: 2.0 (1.0–4.0) h
CL/F [1, 14]: 0.25 ± 0.07 L/h
C max [1, 14]: 1194 ± 132 ng/mL
t max [1, 14]: 4.0 (2.0–4.0) h
CL/F [1, 15]: 0.25 ± 0.08 L/h
C max [1, 15]: 1168 ± 162 ng/mL
t max [1, 15]: 4.0 (1.0–4.0) h

CC(=O)CC(c1ccccc1)c1c(O)c2ccccc2oc1=O (centres unmarked) [Warfarin, warfarin]
TEAEs considered to be related to the study drug (Safety assessments; study 15L-CL-018, warfarin 25 mg alone): nausea and dyspepsia
AUCPT;0–168 h (prothrombin time (PT); warfarin + amenamevir 200 mg once daily, n = 18): 2411 ± 199 s h
AUCPT;0–168 h (prothrombin time (PT); warfarin + amenamevir 400 mg once daily, n = 15): 2425 ± 163 s h
AUCPT;0–168 h (prothrombin time (PT); warfarin alone, amenamevir 400 mg group, n = 17): 2556 ± 254 s h
tPTmax (prothrombin time (PT); warfarin alone, amenamevir 400 mg group, arithmetic mean ± SD): 39.5 ± 14.6 h

CC(=O)N1CCN(c2ccc(OCC3COC(Cn4ccnc4)(c4ccc(Cl)cc4Cl)O3)cc2)CC1 (centres unmarked) [ketoconazole]
participants reporting headache (TEAE) (Safety assessments; study 15L-CL-008, during the treatment named, n = 22): 18.2%
